Laboratory results published in patent US20070089847A1, “Anti-microbial paper products having a substituted 1,2-dihydroquinoline” (Novus International, Inc., priority 2005, published 2007).
Structures can show the parent of a compound that is named as a salt.

Test system: Aspergillus niger ATCC 9642 and Aspergillus flavus ATCC 9643
Test: In vitro disk assay of antifungal properties, agar plates containing test agent (Example 3)
Format: cell-based
Conditions: 48 hours at 25° C.
Description: In this assay, paper disks were soaked in a fungal solution and placed on the surface of agar plates containing different concentration of the test agent. The radius of fungal growth radiating from each disk was considered indicative of the degree of inhibition by the agent relative to a control.
The test agents were diluted in DMSO or water and tested at several different concentrations. The test agents were added to the agar solution after sterilization, but prior to solidification. […] The plates were incubated for 48 hours at 25° C. The zones of fungal growth (or no growth) were analyzed and the minimum total inhibitory concentration (%) was estimated for each agent.

Compound | Minimum Total Inhibitory Concentration (%)
CSCCC(O)C(=O)O (centres unmarked) [2-hydroxy-4(methylthio)butanoic acid] | >0.5
CC(=O)C(C)O (centres unmarked) [3-Hydroxy-2-Butanone] | >0.5
O=C(O)CCO [3-Hydroxypropionic Acid] | >0.5
CC=O [Acetaldehyde] | >0.2
CC(=O)O [Acetic Acid] | 0.2
O=C(O)CCCCC(=O)O [Adipic Acid] | >0.5
O=C(O)CCCCC1CCSS1 (stereo not drawn) [Alpha Lipoic Acid] | 0.1
CC(=O)Oc1c(C)c(C)c2c(c1C)CCC(C)(CCC[C@H](C)CCC[C@H](C)CCCC(C)C)O2 (stereo partly drawn) [Alpha Tocopherol Acetate] | >0.5
Cc1c(C)c2c(c(C)c1O)CC[C@@](C)(CCC[C@H](C)CCC[C@H](C)CCCC(C)C)O2 [Alpha Tocopherol] | >0.5
O=C1O[C@H]([C@@H](O)CO)C(O)=C1O [Ascorbic Acid] | >0.5
CCCCCCCCCCCCCCCC(=O)OC[C@H](O)[C@H]1OC(=O)C(O)=C1O [Ascorbyl Palmitate] | >0.5
COc1ccc(O)c(C(C)(C)C)c1 [BHA (Butylated HydroxyAnisole), Butylated HydroxyAnisole] | 0.025
Cc1cc(C(C)(C)C)c(O)c(C(C)(C)C)c1 [BHT (Butylated HydroxyToluene), Butylated HydroxyToluene] | >0.5
O=Cc1ccccc1 [Benzaldehyde] | 0.5
O=C(O)c1ccccc1 [Benzoic Acid] | 0.1
O=C1CCO1 [Beta-Propiolactone] | 0.1
OB(O)O [Boric Acid] | 0.5
CCCC(=O)O [Butyric Acid] | 0.2
CC(=O)[O-].CC(=O)[O-].[Ca+2] [Calcium Acetate] | >0.5
CCC(=O)[O-].CCC(=O)[O-].[Ca+2] [Calcium Propionate] | >0.5
C=C(C)C1CC=C(C)C(=O)C1 (centres unmarked) [Carvone] | 0.1
O=CC=Cc1ccccc1 [Cinnamaldehyde] | <0.005
CC(C)=CCCC(C)=CC=O [Citral] | 0.1
O=C(O)CC(O)(CC(=O)O)C(=O)O [Citric Acid] | >0.5
O=S(=O)([O-])[O-].[Cu+2] [Copper Sulfate] | 0.05
N[C@@H](CS)C(=O)O [Cysteine] | >0.5
CCCCCCCCCC=O [Decanal] | >0.5

Compound | Minimum Total Inhibitory Concentration (%)
CC(=O)C1C(=O)C=C(C)OC1=O (centres unmarked) [Dehydroacetic Acid] | 0.01
Cc1cc(O)cc2c1O[C@](C)(CCC[C@H](C)CCC[C@H](C)CCCC(C)C)CC2 [Delta Tocopherol] | >0.5
CC(=O)C(C)=O [Diacetyl] | 0.1
CCCCCCCCCCCCOC(=O)CCSCCC(=O)OCCCCCCCCCCCC [Dilauryl Thiodipropionate] | >0.5
CCCCCCCCCCCCOC(=O)c1cc(O)c(O)c(O)c1 [Dodecyl Gallate] | >0.5
O=C(O)CN(CCN(CC(=O)O)CC(=O)O)CC(=O)O [EDTA] | 0.02
CCO [Ethanol] | >0.5
C=CCc1ccc(O)c(OC)c1 [Eugenol] | 0.05
O=C(O)/C=C/C(=O)O [Fumaric Acid] | >0.5
O=C(O)c1cc(O)c(O)c(O)c1 [Gallic Acid] | >0.5
O=C(O)[C@H](O)[C@@H](O)[C@H](O)[C@H](O)CO [Gluconic Acid] | >0.5
NCC(=O)O [Glycine] | >0.5
O=C(O)CO [Glycolic Acid] | >0.5
Cl [HCl] | 0.5
CCCCCCCCCCCCCCCC[n+]1ccccc1.[Cl-] [Hexadecylpyridinium Cl] | 0.2
OO [Hydrogen Peroxide] | 0.1
CC(O)C(=O)O (centres unmarked) [Lactic Acid] | >0.5
C=C(C)[C@H]1CC=C(C)CC1 [Limonene] | >0.5
NCCCC[C@H](N)C(=O)O [Lysine] | >0.5
O=C(O)/C=C\C(=O)O [Maleic Acid] | 0.5
O=C(O)CC(=O)O [Malonic Acid] | >0.5
CSCC[C@H](N)C(=O)O [Methionine] | >0.5
COC(=O)c1ccc(O)cc1 [Methyl Paraben] | 0.5
CCCCCCCCOC(=O)c1cc(O)c(O)c(O)c1 [Octyl Gallate] | >0.5
O=P(O)(O)O [Phosphoric Acid] | 0.5
O=Cc1ccc2c(c1)OCO2 [Piperonal] | 0.1
CC(=O)[O-].[K+] [Potassium Acetate] | >0.5

Compound | Minimum Total Inhibitory Concentration (%)
O=C([O-])c1ccccc1.[K+] [Potassium Benzoate] | >0.5
C/C=C/C=C/C(=O)[O-].[K+] [Potassium Sorbate] | >0.5
CCC(=O)O [Proprionic Acid] | 0.2
CCCOC(=O)c1cc(O)c(O)c(O)c1 [Propyl Gallate] | >0.5
CCCOC(=O)c1ccc(O)cc1 [Propyl Paraben] | 0.015
CC(=O)[O-].[Na+] [Sodium Acetate] | >0.5
O=C([O-])c1ccccc1.[Na+] [Sodium Benzoate] | >0.5
O=S([O-])O.[Na+] [Sodium Bisulfite] | 0.2
O=C([O-])CC(O)(CC(=O)[O-])C(=O)[O-].[Na+].[Na+].[Na+] [Sodium Citrate] | >0.5
CC(=O)O.CC(=O)[O-].[Na+] [Sodium Diacetate] | 0.5
O=C([O-])[C@H](O)[C@@H](O)[C@H](O)[C@H](O)CO.[Na+] [Sodium Gluconate] | >0.5
O=P1([O-])OP(=O)([O-])OP(=O)([O-])OP(=O)([O-])OP(=O)([O-])OP(=O)([O-])O1.[Na+].[Na+].[Na+].[Na+].[Na+].[Na+] [Sodium Hexametaphosphate] | >0.5
CC(O)C(=O)[O-].[Na+] (centres unmarked) [Sodium Lactate] | >0.5
O=S([O-])S(=O)(=O)[O-].[Na+].[Na+] [Sodium Metabisulfite] | 0.1
CCC(=O)[O-].[Na+] [Sodium Proprionate] | >0.5
O=P([O-])([O-])OP(=O)([O-])[O-].[Na+].[Na+].[Na+].[Na+] [Sodium Pyrophosphate] | >0.5
O=S([O-])[O-].[Na+].[Na+] [Sodium Sulfite] | >0.5
O=S([O-])([O-])=S.[Na+].[Na+] [Sodium Thiosulfate] | >0.5
O=P([O-])(O)O.[Na+] [Sodium bi-Phosphate] | >0.5
O=S(=O)(O)O [Sulfuric Acid] | 0.1
CC(C)(C)c1cc(O)ccc1O [TBHQ (Tert-ButylHydroQuinone), Tert-ButylHydroQuinone] | 0.1
O=C(O)C(O)C(O)C(=O)O (centres unmarked) [Tartaric Acid] | >0.5
N[C@@H](Cc1c[nH]c2ccccc12)C(=O)O [Tryptophan] | >0.5
CCCCC(=O)O [Valeric Acid] | 0.1
COc1cc(C=O)ccc1O [Vanillin] | 0.1
Stearyl Citrate | >0.5
